For data set [1], the system named is Pseudomonas aeruginosa (ATCC 27853). The data set is described as follows: Protocol 1 kill curve / MIC, 1 hour at 37° C. in glass tubes. The format is cell-based. As for the experimental part:
This protocol is used to develop dose-response (kill) curves to calculate the minimal inhibitory concentration of an indolicidin (e.g., L-indolicidin (L-IND)) when formulated in a commercially available phosphate buffered saline (PBS) solution. In addition, for comparative purposes, kill curves are established for the following three commonly available commercial lens-care products containing different preservatives:
An initial dose range experiment is performed to determine a suitable dose range for the final experiment. The indolicidin (e.g., L-IND) is tested in the preliminary toxicity experiment at 13 different dose levels in a range between 500 μg/ml and 0.125 μg/ml. The 3 control samples with preservatives are tested at 13 different dose levels with the highest dose level representing the undiluted solution. […]
Viable counts of the bacteria are performed by 10-fold serial dilutions in sterile PBS and by plating 0.1 ml aliquots on nutrient agar plates. […] The plates are incubated overnight at 37° C. and colonies are counted and recorded. […]
Survival is expressed as number of surviving bacteria (CFU/ml) for each dilution of the test article and control solutions. The lowest dose of the test article that results in complete kill of the test organism, compared to the non-exposed control, is determined to be the MIC value. […]

A short description of data set [2]: Toxicity study, intravaginal administration. How it is done:
The objective of this study was to determine if the treatment regimen proposed for the efficacy study of the defensin formulations caused target organ toxicity. This study is not intended to support application for research or marketing permits for products regulated by governmental agencies. The purpose of this study is to provide range-finding data is therefore, not within the scope of Good Laboratory Practice Guidelines.
Mice were treated by intravaginal administration twice daily at ˜12 hour intervals administered on Days 1 through 4. Mice were treated intraperitoneally three times on Day 1 at ˜4 hour intervals, and twice daily at ˜12 hour intervals administered on days 2 through 4.
Dosing volumes were 0.1 mL/mouse (intravaginal), 0.1 mL/mouse (intraperitoneal), and 20 μL/rabbit. The study lasted 5 days, with day 1 the first day of dose administration.
The dose formulations were supplied in pyrogen-free saline.

The text below walks through data of patent US6482799B1, “Self-preserving multipurpose ophthalmic solutions incorporating a polypeptide antimicrobial” (The Regents of the University of California, priority 1999, dated 2002).

As to `CC[C@H](C)[C@H](N)C(=O)N[C@@H](CC(C)C)C(=O)N1CCC[C@H]1C(=O)N[C@@H](Cc1c[nH]c2ccccc12)C(=O)N[C@@H](CCCCN)C(=O)N[C@@H](Cc1c[nH]c2ccccc12)C(=O)N1CCC[C@H]1C(=O)N[C@@H](Cc1c[nH]c2ccccc12)C(=O)N[C@@H](Cc1c[nH]c2ccccc12)C(=O)N1CCC[C@H]1C(=O)N[C@@H](Cc1c[nH]c2ccccc12)C(=O)N[C@@H](CCCNC(=N)N)C(=O)N[C@@H](CCCNC(=N)N)C(N)=O` [L-indolicidin, H2N-ILPWKWPWWPWRR-CONH2], the survival in data set [1] (all dose levels 100-6.25 μg/ml, 10 mM phosphate buffer pH 7.4, 2.01×10^5 CFU/ml) is 100%; in data set [1] (all dose levels 5,000-1.25 μg/ml in PBS, 1 hour 37° C., 5.9×10^5 CFU/ml), 100%. The “Tissues from the reproductive tract (histology)” value in data set [2] (0.1 mL/mouse at 10, 100 or 1000 μg/mL, BPN-A-amide at 30, 300 or 300 μ/mL) is “within normal limits”. For the same compound, the “deaths or clinical signs of toxicity” value in data set [2] (10, 100 or 1000 μg/mL, BPN-A-amide 30, 300 or 3000 μg/mL) is on record as “No deaths or biologically significant clinical signs of toxicity”.
